According to patent EP0391077A1, “O56-alkyl derivatives of aglycone and pseudoaglycones of teicoplanin” (GRUPPO LEPETIT S.p.A., priority 1989, dated 1990):
Counter-ions that a name gives are not always drawn.

Experiment: physchem
Assay type: physicochemical
Details: methylcellosolve:water 4:1, pKMCS
Method: The potentiometric determinations reported in the examples are run in Methylcellosolve : water, 4:1 (v/v). An excess of 0.01 N HCl In this solvent mixture was added to the sample and the resulting solution was titrated with 0.01 N NaOH in the same solvent mixture. The pK value obtained under the conditions is reported below as pKMCS, wherein MCS stands for Methylcellosolve.

Compound | pKa
COC(=O)C1NC(=O)C2NC(=O)C(NC(=O)C3NC(=O)C4NC(=O)C(Cc5ccc(c(Cl)c5)Oc5cc3cc(c5OC(CCO)C(=O)O)Oc3ccc(cc3Cl)C2O)NC(=O)C(N)c2ccc(O)c(c2)Oc2cc(O)cc4c2)c2ccc(O)c(c2)-c2c(O)cc(O)cc21 (centres unmarked) [Compound 3, O⁵⁶ -(1-carboxy-3-hydroxypropyl)deglucoteicoplanin methyl ester hydrochloride] | 6
COC(=O)C1NC(=O)C2NC(=O)C(NC(=O)C3NC(=O)C4NC(=O)C(Cc5ccc(c(Cl)c5)Oc5cc3cc(c5OCCN3CCCC3)Oc3ccc(cc3Cl)C2O)NC(=O)C(N)c2ccc(O)c(c2)Oc2cc(O)cc4c2)c2ccc(O)c(c2)-c2c(O)cc(O)cc21 (centres unmarked) [Compound 13, O⁵⁶-[2-(1-pyrrolidinyl)-ethyl]deglucoteicoplanin methyl ester dihydrochloride] | 6.4
